Assay results as given in US9868716B2, “Method for preventing and/or treating a subject suffering from asthma” (Hong Kong Baptist University, priority 2014, dated 2018).

Tests used:
Syk [1] = molecular target: T1, Syk (Mus musculus, UniProt P48025); experiment: Immunoprecipitation of Syk phosphorylation in IgE/DNP-HSA-stimulated murine mast cells; assay type: cell-based, mice; settings: murine BMMC, N7 1 hour, then antigen 5 minutes; FIG. 1a
Description: (§1) Bone marrow-derived mast cells (BMMC) of mice were separated from BALB/c murine marrow and were cultured in RPMI1640 liquid containing IL-3, 10% of calf serum, 100 U/ml of penicillin and 100 μg/ml of streptomycin for 6 weeks. Two markers c-kit and FceRI on cell membranes were detected by using flow cytometric analysis. When double-positive cells detected, having both markers, have exceeded 95%, the cultured cells can be used for the experiment.
(§2) Mast cells were pre-treated with IgE overnight, and were washed by PBS thrice. After re-suspended with medium, they were treated with different concentrations of Nujiangexanthone A for 1 hour. Dinitrophenyl human serum albumin (DNP-HSA) was used to treat the cells for 5 minutes. A/G agarose was added into the cell lysates and the mixtures were rotated at a rotator for 1 hour. Antibodies of Syk, Fyn and Lyn were added, and the mixtures were rotated overnight. On the following day, PBS was used to wash the complex of magnetic beads, antibody and protein for 5 times. A Western Blot loading dye was added into the complex and the mixtures were boiled for 5 minutes. […]
(§3) The results of FIG. 1a are obtained by pretreating the antibody-treated mast cells with N7 and Src family inhibitor PP2 for 1 hour and then treating the cells with antigens for 5 minutes. […] The downstream signal pathways of Syk including MAPKs, NF-kB and AP-1 were then analyzed by Western Blot.

Fyn [2] = experiment: Immunoprecipitation of Fyn phosphorylation in IgE/DNP-HSA-stimulated murine mast cells; assay type: cell-based, mice; settings: murine BMMC, N7 1 hour, then antigen 5 minutes; FIG. 1a
Description: as §1, §2, §3

Lyn = experiment: Immunoprecipitation of Lyn phosphorylation in IgE/DNP-HSA-stimulated murine mast cells; assay type: cell-based, mice; settings: murine BMMC, N7 1 hour, then antigen 5 minutes; FIG. 1a
Description: as §1, §2, §3

[3] = test system: downstream signal pathways of Syk including MAPKs, NF-kB and AP-1; experiment: Western Blot of downstream signaling pathways of Syk in murine mast cells; assay type: cell-based, mice; settings: murine BMMC, FIG. 1b
Description: as §1
Cells were treated with Nujiangexanthone A (N7) in corresponding concentrations for 5, 15 and 30 minutes. The samples were collected and lysed. The samples were then separated by 8% gel in sodium dodecyl sulfate polyacrylaminde gel electrophoresis (SDS-PAGE) and transferred to polyvinylidene fluoride (PVDF) membrane. The following antibodies were used to analyze the samples: ERK, JNK, p38, IKK, IkBa, NF-kB and so forth. If the compound is found to interfere with the expression and phosphorylation of the target proteins, a corresponding specific inhibitor may be used to conduct a comparative analysis.
The results of FIG. 1a are obtained by pretreating the antibody-treated mast cells with N7 and Src family inhibitor PP2 for 1 hour and then treating the cells with antigens for 5 minutes. Phosphorylation of Syk, Fyn and Lyn were then examined by immunoprecipitation. The results of FIG. 1b are obtained by pretreating the antibody-treated mast cells with N7 and Src family inhibitor PP2 for one hour and then treating with antigens for 15 minutes. The downstream signal pathways of Syk including MAPKs, NF-kB and AP-1 were then analyzed by Western Blot.

murine spleen cells = experiment: ELISA of cytokines in spleen cells of asthma mice; assay type: in vivo; settings: spleen cells treated with OVA for 3 days, ELISA (IL-4, IL-5, IL-13, IFNγ); FIG. 2a
Description: (§4) Lymph nodes and spleen of mice were collected. The collected tissues were respectively grinded, counted and cultivated. The cultured tissues were stimulated with PMA and ionomycin for 48 hours. The supernatant and the cells were then collected for analysis. The supernatant was used for examining various cytokines, and the cells were used for measuring expressions of various T cell specific proteins by Western blot.
(§5) To obtain the data in FIG. 2a, murine spleen cells were grinded and treated with OVA for 3 days, and then the supernatants of the cell mixtures were collected for ELISA analysis. […] As shown in FIG. 2b and FIG. 2c, the signal transduction proteins in spleen cells were detected. According to the experimental results, N7 inhibits the phosphorylation of Syk in spleen cells of mice having asthma.

Zap70 = experiment: Western Blot of phosphorylated Zap70 in spleen cells of asthma mice; assay type: in vivo; settings: FIG. 2b, 2c
Description: as §4, §5

Stat6 = experiment: Western Blot of phosphorylated Stat6 in spleen cells of asthma mice; assay type: in vivo; settings: FIG. 2b, 2c
Description: as §4, §5

GATA3 = experiment: Western Blot of GATA3 in spleen cells of asthma mice; assay type: in vivo; settings: FIG. 2b, 2c
Description: as §4, §5

T-bet = experiment: Western Blot of T-bet in spleen cells of asthma mice; assay type: in vivo; settings: FIG. 2b, 2c
Description: as §4, §5

[4] = test system: Balb/c mice, asthma animal model; experiment: OVA asthma animal model; assay type: in vivo
Description: (§6) Balb/c mice of SPF grade were selected for establishing an asthma animal model. With reference to FIG. 3a, ovalalbumin (OVA) dissolved in PBS with aluminum hydroxide gel was intraperitoneally injected to the mice to trigger systemic allergic responses, i.e. OVA sensitization. Then, atomized OVA was given to stimulate or challenge respiratory tracts of the mice. As such, a control group was prepared. By using the similar approach, treatment groups with an administration of N7 in different concentrations as well as a positive control group with an administration of dexamethasone were established. Also, a further control group of PBS was established by using same volume of PBS to replace OVA and using the PBS to replace the atomized OVA.
(§7) Symptoms of the mice were recorded during the test. Peripheral blood of the mice was collected before the end of the test so as to measure the release of IgE. Airway lavages were collected and the supernatants thereof were tested to measure the release of various cytokines. Cells were counted after being fixed and stained. The effect of Nujiangexanthone A on different types of immune cells was studied.

Syk [5] = molecular target: T1, Syk; experiment: Immunohistochemistry of p-Syk in lung tissues of asthma model mice; assay type: in vivo; settings: FIG. 3d
Description: as §6, §7

PBMC of asthma patients = experiment: qPCR of cytokines in PBMC of asthma patients; assay type: cell-based, human; settings: mRNA by qPCR, FIG. 4
Description: Blood samples were collected from normal (healthy) people and people with asthma Peripheral blood mononuclear cells (PBMC) were isolated. By using Ficoll-density method, the effect of Nujiangexanthone A on the release of various cytokines in the isolated PBMCs was measured by qPCR.

Syk [6] = experiment: Western blot of Syk phosphorylation in PMA/ionomycin-treated Jurkat cells; assay type: cell-based, Human; settings: N7 1 hour, PMA and ionomycin 15 minutes, FIG. 5a
Description: (§8) Jurkat T cells were cultured in RPMI1640 containing 10% fetal calf serum, 100 U/ml of penicillin and 100 μg/ml of streptomycin. The cells were passed once every two days with fresh medium. After pretreating the cells with a medicament, PMA and ionomycin were used to treat the cells at different time points. After the treatments, the cells were collected for biomarker measurements.
(§9) Jurkat T cells culture: in a safe range of concentrations, cells were treated with Nujiangexanthone A in corresponding concentrations for 5, 15 and 30 minutes. The samples were collected and lysed. The samples were then separated by 8% gel in SDS-PAGE and transferred to PVDF membrane. The following antibodies were used to analyze the samples: ERK, JNK, p38, IKK, IkBa, NF-kB and so forth. If the compound is found to interfere with the expression and phosphorylation of the target proteins, a corresponding specific inhibitor may be used to conduct a comparative analysis.
(§10) In one test, Jurkat cells were pretreated with N7 and Src family inhibitor PP2 for 1 hour and then co-treated with PMA and ionomycin for 15 minutes. Then, a plurality of proteins of T cells signaling transduction pathways were measured by Western blot.

Fyn [7] = experiment: Western blot of Fyn phosphorylation in PMA/ionomycin-treated Jurkat cells; assay type: cell-based, Human; settings: N7 1 hour, PMA and ionomycin 15 minutes, FIG. 5a
Description: as §8, §9, §10

Lck = experiment: Western blot of Lck phosphorylation in PMA/ionomycin-treated Jurkat cells; assay type: cell-based, Human; settings: N7 1 hour, PMA and ionomycin 15 minutes, FIG. 5a
Description: as §8, §9, §10

Murine BMMCs = experiment: Activation of murine mast cells (cytokines, degranulation, Ca2+, LTC4); assay type: cell-based, BALB/c mice; settings: BMMC
Description: Murine BMMCs were isolated from BALB/c murine marrow and were cultured in a RPMI1640 medium containing IL-3, 10% of calf serum, 100 U/ml of penicillin and 100 μg/ml of streptomycin for 6 weeks. Two markers c-kit and FceRI on cell membranes were detected by using flow cytometric analysis. When double-positive cells detected, having both markers, have exceeded 95%, the cultured cells can be used for the experiment.
IgE mast cells were pretreated with IgE overnight and washed by PBS thrice. After re-suspended with medium, they were treated with different concentrations of Nujiangexanthone A for 1 hour. DNP-HAS or antigen was then used to treat the cells for 6 hours. The supernatants were collected for measurement. The amounts of TNF-α and IL-6 were measured by an ELISA kit.
IgE mast cells were pretreated with IgE overnight and washed by PBS thrice. After re-suspended with medium, they were treated with different concentrations of Nujiangexanthone A for 1 hour. DNP-HAS or antigen was then used to treat the cells for 15 minutes. The supernatants were collected for measurement. The amounts of LTC4 and Ca^2+ as well as the degranulation response were measured by an ELISA kit.
The amount of b-Hex was measured to evaluate the degranulation response.

lung tissue = experiment: Cytokines in lung tissue of asthma animal models; assay type: in vivo; settings: asthma model mice; FIG. 7
Description: as §6
Some portions of lung tissue of the animal models were collected to evaluate lung inflammatory status. A portion of the collected lung tissue was isolated to extract RNA, and another portion of the lung tissue was grinded and digested for cytokines measurements.

Syk [8] = molecular target: T1, Syk; experiment: Western Blot of phosphorylated Syk in spleen cells of asthma mice; assay type: in vivo; set-up: from tissue; host or cells: mouse spleen cells; settings: spleen cells of mice having asthma; FIG. 2b, 2c
Description: as §4, §5

[9] = N7 1 hour, DNP-HAS 15 minutes, dose-dependent, FIG. 6
[10] = N7 1 hour, DNP-HAS 6 hours, ELISA, dose-dependent, FIG. 6

T1 sequence (P48025 whole entry): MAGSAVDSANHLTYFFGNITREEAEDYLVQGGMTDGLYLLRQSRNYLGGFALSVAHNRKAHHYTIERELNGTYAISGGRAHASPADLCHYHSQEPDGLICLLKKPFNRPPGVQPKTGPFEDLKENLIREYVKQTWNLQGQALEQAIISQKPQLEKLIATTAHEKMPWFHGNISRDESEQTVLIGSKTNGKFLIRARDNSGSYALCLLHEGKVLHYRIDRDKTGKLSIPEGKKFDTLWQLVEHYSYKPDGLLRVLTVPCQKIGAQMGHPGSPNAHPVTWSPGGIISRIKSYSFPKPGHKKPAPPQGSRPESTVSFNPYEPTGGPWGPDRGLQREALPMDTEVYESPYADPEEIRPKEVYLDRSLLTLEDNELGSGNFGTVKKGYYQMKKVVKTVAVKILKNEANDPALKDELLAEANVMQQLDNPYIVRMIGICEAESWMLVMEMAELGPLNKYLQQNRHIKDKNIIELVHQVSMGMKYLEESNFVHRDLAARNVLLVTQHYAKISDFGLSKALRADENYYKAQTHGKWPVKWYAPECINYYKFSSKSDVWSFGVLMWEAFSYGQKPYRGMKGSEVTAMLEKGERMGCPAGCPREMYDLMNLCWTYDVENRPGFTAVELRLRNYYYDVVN

COc1c(O)c(O)c2c(=O)c3c(CC=C(C)C)c(CC=C(C)C)c(O)c(O)c3oc2c1CC=C(C)C [Nujiangexanthone A]
does not inhibit: expression of IFN′ (PBMC of asthma patients)
does not affect: phosphorylation of Fyn (Fyn [2]) | phosphorylation of Lyn (Lyn) | phosphorylation of Fyn (Fyn [7]) | phosphorylation of Lck (Lck) | production of IFNγ in lung tissue (lung tissue)
inhibit: degranulation of mast cells (b-Hex) (Murine BMMCs; [9]) | production of leukotriene LTC4 (Murine BMMCs; [9]) | production of IL-6 (Murine BMMCs; [10]) | production of TNF-α (Murine BMMCs; [10])
without altering: expression of T-bet (T-bet)
selectively inhibits: phosphorylation of Syk (Syk [1]) | phosphorylation of Syk (Syk [6])
is inhibited: production of transcription factors AP-1 (c-Jun+c-fos) [3]
no cytotoxicity: cytotoxicity (Murine BMMCs; range of concentration used in the activation tests)
inhibits: MAPK signaling pathways ([3]; N7 1 hour, antigen 15 minutes) | nuclear translocation of p65 ([3]; cytoplasm and nucleus separated) | production of cytokines in spleen tissues (murine spleen cells) | expression of phosphorylated Zap70 (Zap70) | expression of phosphorylated Stat6 (Stat6) | expression of GATA3 (GATA3) | level of phosphorylated tyrosine in lung tissues ([4]; immunohistochemistry, FIG. 3d) | level of phosphorylated Syk in lung tissues (Syk [5]) | production of IL-5 (PBMC of asthma patients) | production of IL-13 (PBMC of asthma patients) | production of IL-17 (PBMC of asthma patients) | production of IL-4 in lung tissue (lung tissue) | production of IL-5 in lung tissue (lung tissue) | production of IL-13 in lung tissue (lung tissue) | production of LTC4 in lung tissue (lung tissue) | production of PGD2 in lung tissue (lung tissue) | production of eotaxin in lung tissue (lung tissue) | expression of phosphorylated Syk (Syk [8])
decreases: infiltrates in peribronchial inflammatory cell ([4]; lung tissues, H&E and PAS, FIG. 3c)
lower: concentration of calcium (Murine BMMCs; [9])
effectively inhibits: production of IgE in serum ([4]; OVA asthma mice, FIG. 3b)
